This is an account of results in patent publication US7989451B2, “Tricyclic 1,2,4-triazine oxides and compositions for therapeutic use in cancer treatments” (Auckland Uniservices Limited, priority 2005, dated 2011).

Data set [1] relates to human cervical carcinoma SiHa. The data set is described as follows: Proliferation assay (IC50) under aerobic and hypoxic conditions, SiHa. It counts as cell-based. The conditions noted are these: for IC50: 4 h drug exposure, sulforhodamine B; for HCR: hypoxic cytotoxicity ratio = IC50 aerobic/IC50 hypoxic. As for the experimental part:
(§1) Compounds representative of the invention were evaluated under both aerobic and hypoxic conditions in a proliferation assay (IC50), using two cell lines: human colon carcinoma HT29, and human cervical carcinoma SiHa (Table 1).
(§2) Drug exposures were performed in 96-well plates (Nunc) either using a 37 DC humidified incubator (20% O2, 5% CO2) or in the incubator compartment (37° C.) of an anaerobic chamber (Shell Lab) where palladium catalyst scrubbed gas (90% N2, 5% H2, 5% CO2) ensures severe anoxia (<0.001% O2). For each experiment, compounds were simultaneously tested under both oxic and hypoxic conditions and included TPZ as an internal control. An 8-methyl-5-nitroquinoline derivative, SN 24349, known to require very low oxygen concentrations for bioactivation (Siim et al., Br. J. Cancer 1994, 70, 596-603) was used to confirm that strict hypoxia was present during the experiment. […] Cell cultures were grown in αMEM (Gibco) containing 5% heat inactivated FCS and maintained in exponential growth phase. For each individual experiment an appropriate number of cells were seeded (HT29=1100; SiHa=1500) into wells in αMEM+10% FCS+10 mM added glucose+100 μM 2′-deoxycytidine (2′dCyd), and allowed to attach for 2-3 h. High glucose (final concentration 17 mM) and the presence of 2′-dCyd minimize hypoxia-induced cell cycle arrest. Cultures were then exposed to drugs, using 3-fold serial dilutions in duplicate, for a further 4 h. Subsequently cells were washed free of compound using complete media (without glucose/2′-dCyd) and allowed to grow for 5 (oxic) or 6 (anoxic) days. Plates were stained with sulforhodamine B as described previously (Wilson et al., J. Med. Chem. 1989, 32, 31-38) and IC50 values determined.
(§3) HCR=Hypoxic cytotoxicity ratio is defined as the ratio of IC50 values under aerobic and hypoxic conditions (IC50 aerobic/IC50 hypoxic).

The test system of data set [2] is human colon carcinoma HT29. The data set is described as follows: Proliferation assay (IC50) under aerobic and hypoxic conditions, HT29. In kind it is cell-based. The conditions noted are these: for IC50: 4 h drug exposure, sulforhodamine B; for HCR: hypoxic cytotoxicity ratio = IC50 aerobic/IC50 hypoxic. Here is the method:
as §1, §2, §3

Setting [3] is: hypoxic (anaerobic chamber, <0.001% O2), then 6 days growth, read-out: IC50 (μM) hypoxic.
[4] abbreviates: oxic (20% O2), then 5 days growth, read-out: IC50 (μM) oxic.
Setting [5] is: Homo sapiens, hypoxic (anaerobic chamber, <0.001% O2), then 6 days growth, read-out: IC50 (μM) hypoxic.
[6] abbreviates: Homo sapiens, oxic (20% O2), then 5 days growth, read-out: IC50 (μM) oxic.
The mark [7] stands for this setting: Homo sapiens, HT-29, hypoxic (anaerobic chamber, <0.001% O2), then 6 days growth, read-out: IC50 (μM) hypoxic.
The mark [8] stands for this setting: Homo sapiens, HT-29, oxic (20% O2), then 5 days growth, read-out: IC50 (μM) oxic.

Each structure is given as a SMILES string. Read-outs that look alike come from different tables or passages of the source.

For the molecule `[O-][n+]1nc(NCCCN2CCOCC2)[n+]([O-])c2ccc3c(c21)CCC3` [Compound 15, N-[3-(1-Morpholinyl)propyl]-8,9-dihydro-7H-indeno[5,4-e][1,2,4]triazin-3-amine 1,4-Dioxide], the IC50 came out at 13.9 µM in data set [1] (setting [3]), 460 µM in data set [1] (setting [4]), 37.6 µM in data set [2] (setting [3]) and 902 µM in data set [2] (setting [4]). Moreover, the HCR in data set [1] is listed as 33; in data set [2], 24.
Regarding `[O-][n+]1nc(NCCO)nc2cc3c(cc21)CCC3` [Compound 24, 2-[(1-Oxido-7,8-dihydro-6H-indeno[5,6-e][1,2,4]triazin-3-yl)amino]ethanol], the melting point lay in the range of 222 to 224 °C.
The same measure, in the same setting: as for `CCc1nc2ccc3c(c2[n+]([O-])n1)CN(C)CC3` [Compound 264, 3-Ethyl-9-methyl-7,8,9,10-tetrahydro[1,2,4]triazino[5,6-h]isoquinoline 1 Oxide], the figure is 99 to 102 °C.
On to `CN(C)C1Cc2cc3nc(N)n[n+]([O-])c3cc2C1` (centres unmarked) [Compound 111, N^7,N^7-Dimethyl-7,8-dihydro-6H-indeno[5,6-e][1,2,4]triazine-3,7-diamine 1-Oxide], for which the melting point fell in the range of 212 to 216 °C.
For `[O-][n+]1nc(NCCCN2CCOCC2)[n+]([O-])c2cc3c(cc21)CCCC3` [Compound 180, N-[3-(4-Morpholinyl)propyl]-6,7,8,9-tetrahydronaphtho[2,3-e][1,2,4]triazin-3-amine 1,4-Dioxide], the IC50 was 2.6 ± 0.5 µM in data set [1] (setting [5]), 127 ± 14 µM in data set [1] (setting [6]), 6.3 ± 0.8 µM in data set [2] (setting [7]) and 158 ± 19 µM in data set [2] (setting [8]). Moreover, the HCR is recorded as 54 ± 16 in data set [1] and 25 ± 3 in data set [2].
Turning to `[O-][n+]1nc(CCCN2CCCCC2)[n+]([O-])c2cc3c(cc21)CCC3` [Compound 87, 3-[3-(1-Piperidinyl)propyl]-7,8-dihydro-6H-indeno[5,6-e][1,2,4]triazine 1,4-Dioxide], the IC50 was determined as 0.26 ± 0.08 µM in data set [1] (setting [5]), 219 ± 96 µM in data set [1] (setting [6]), 0.37 ± 0.05 µM in data set [2] (setting [7]) and 202 ± 72 µM in data set [2] (setting [8]). For the same molecule, the HCR in data set [1] is listed as 1000 ± 431; in data set [2], 598 ± 233.
In the case of `CCc1n[n+]([O-])c2cc3c(cc2[n+]1[O-])CC(CCN1CCOCC1)C3` (centres unmarked) [Compound 164, 3-Ethyl-7-[2-(4-morpholinyl)ethyl]-7,8-dihydro-6H-indeno[5,6-e][1,2,4]triazine 1,4-Dioxide], the IC50 in data set [1] (setting [5]) was 1.3 µM; in data set [1] (setting [6]), 95 ± 12 µM; in data set [2] (setting [7]), 3.6 ± 1.1 µM; in data set [2] (setting [8]) it was 121 ± 21 µM. Also, the values for the HCR in data set [1] and in data set [2] were 84 and 36 ± 5, respectively.
For the molecule `CN(C)CCCc1n[n+]([O-])c2cc3c(cc2[n+]1[O-])CCC3` [Compound 79, N-[3-(1,4-Dioxido-7,8-dihydro-6H-indeno[5,6-e][1,2,4]triazin-3-yl)propyl]-N,N-dimethylamine], the IC50 in data set [1] (setting [5]) worked out at 0.32 ± 0.09 µM; in data set [1] (setting [6]) it was 194 ± 120 µM; in data set [2] (setting [7]), 0.54 ± 0.07 µM; in data set [2] (setting [8]), 195 ± 99 µM. Further, the HCR is 738 ± 523 in data set [1] and 386 ± 213 in data set [2].
Turning to `[O-][n+]1nc(NCCCN2CCOCC2)[n+]([O-])c2cc3c(cc21)OCCC3` [Compound 244, N-[3-(4-Morpholinyl)propyl]-7,8-dihydro-6H-chromeno[6,7-e][1,2,4]triazin-3-amine 1,4-Dioxide], the IC50 was 3.6 ± 0.5 µM in data set [1] (setting [5]), 145 ± 29 µM in data set [1] (setting [6]), 11 ± 3 µM in data set [2] (setting [7]) and 188 ± 51 µM in data set [2] (setting [8]). The HCR in data set [1] came to 41 ± 10; in data set [2] it was 19 ± 5.
Regarding `[O-][n+]1nc(NCCN2CCOCC2)[n+]([O-])c2cc3c(cc21)CCC3` [Compound 45, N-[2-(4-Morpholinyl)ethyl]-7,8-dihydro-6H-indeno[5,6-e][1,2,4]triazin-3-amine 1,4-Dioxide], the IC50 was determined as 9.9 ± 1.4 µM in data set [1] (setting [5]), 245 ± 60 µM in data set [1] (setting [6]), 19 ± 2 µM in data set [2] (setting [7]) and 310 ± 109 µM in data set [2] (setting [8]). The HCR in data set [1] stood at 28 ± 11; in data set [2] it was 17 ± 6.
For the molecule `CCN1Cc2cc3c(cc2C1)[n+]([O-])c(N)n[n+]3[O-]` [Compound 250, 7-Ethyl-7,8-dihydro-6H-[1,2,4]triazino[5,6-f]isoindol-3-amine 1,4-Dioxide], the IC50 in data set [1] (setting [5]) was determined as 0.85 µM; in data set [1] (setting [6]), 36 ± 32 µM; in data set [2] (setting [7]), 1.5 µM; in data set [2] (setting [8]), 6.2 µM. Besides, the HCR in data set [1] is 80.
Take `COC1CCCN(CCNc2n[n+]([O-])c3cc4c(cc3[n+]2[O-])CCC4)C1` (centres unmarked) [Compound 41, N-[2-(3-Methoxy-1-piperidinyl)ethyl]-7,8-dihydro-6H-indeno[5,6-e][1,2,4]triazin-3-amine 1,4-Dioxide]: the IC50 in data set [1] (setting [5]) was 46 ± 11 µM; in data set [1] (setting [6]), 1750 ± 148 µM; in data set [2] (setting [7]), 93 ± 11 µM; in data set [2] (setting [8]), 1390 ± 349 µM. In addition, the values for the HCR in data set [1] and in data set [2] were 46 ± 17 and 19 ± 0.3, respectively.
As for `[O-][n+]1nc(CCCN2CCCC2)[n+]([O-])c2cc3c(cc21)CCC3` [Compound 85, 3-[3-(1-Pyrrolidinyl)propyl]-7,8-dihydro-6H-indeno[5,6-e][1,2,4]triazine 1,4-Dioxide], the IC50 in data set [1] (setting [5]) stood at 0.35 ± 0.01 µM; in data set [1] (setting [6]), 133 ± 42 µM; in data set [2] (setting [7]) it was 0.63 ± 0.05 µM; in data set [2] (setting [8]) it was 161 ± 48 µM. Besides, the HCR in data set [1] is given as 385 ± 125; in data set [2] it was 249 ± 55.
On to `[O-][n+]1nc(NCCN2CCCOCC2)[n+]([O-])c2cc3c(cc21)CCC3` [Compound 49, N-[2-(1,4-Oxazepan-4-yl)ethyl]-7,8-dihydro-6H-indeno[5,6-e][1,2,4]triazin-3-amine 1,4-Dioxide], for which the IC50 came to 2.8 ± 1.2 µM in data set [1] (setting [5]), 217 ± 52 µM in data set [1] (setting [6]), 7.1 ± 0.6 µM in data set [2] (setting [7]) and 399 ± 148 µM in data set [2] (setting [8]). Further, the HCR in data set [1] was found to be 86 ± 18; in data set [2] it was 58 ± 26.
Take `CN(C)CCNc1n[n+]([O-])c2c3c(ccc2[n+]1[O-])CCCC3` [Compound 173, N^1-(1,4-Dioxido-7,8,9,10-tetrahydronaphtho[2,1-e][1,2,4]triazin-3-yl)-N^2,N^2-dimethyl-1,2-ethanediamine]: the IC50 in data set [1] (setting [5]) is 1 µM; in data set [1] (setting [6]), 62 µM; in data set [2] (setting [7]), 3.4 µM; in data set [2] (setting [8]), 60.5 µM. In addition, the results for the HCR in data set [1] and in data set [2] were 64 and 18, respectively.
With `CCN(CC)CCNc1n[n+]([O-])c2cc3c(cc2[n+]1[O-])CCC3` [Compound 27, N^1-(1,4-Dioxido-7,8-dihydro-6H-indeno[5,6-e][1,2,4]triazin-3-yl)-N^2,N^2-diethyl-1,2-ethanediamine], the IC50 in data set [1] (setting [5]) worked out at 1.1 µM; in data set [1] (setting [6]) it was 143 µM; in data set [2] (setting [7]), 4.2 µM; in data set [2] (setting [8]) it was 254 µM. Also, the values for the HCR in data set [1] and in data set [2] were 133 and 61, respectively.
As to `N#CC1CCN(CCCNc2n[n+]([O-])c3cc4c(cc3[n+]2[O-])CCC4)C1` (centres unmarked) [Compound 57, 1-{3-[(1,4-Dioxido-7,8-dihydro-6H-indeno[5,6-e][1,2,4]triazin-3-yl)amino]propyl}-3-pyrrolidinecarbonitrile], the IC50 in data set [1] (setting [5]) came out at 10.4 ± 0.6 µM; in data set [1] (setting [6]) it was 231 ± 64 µM; in data set [2] (setting [7]) it was 22 ± 1 µM; in data set [2] (setting [8]), 87 ± 3 µM. For the same molecule, the HCR is recorded as 22 ± 6 in data set [1] and 4 ± 0.1 in data set [2].
For `CN(C)CCNc1n[n+]([O-])c2c3c(ccc2[n+]1[O-])OCCC3` [Compound 237, N^1-(1,4-Dioxido-9,10-dihydro-8H-chromeno[6,5-e][1,2,4]triazin-3-yl)-N^2,N^2-dimethyl-1,2-ethanediamine], the IC50 in data set [1] (setting [5]) amounted to 0.67 µM; in data set [1] (setting [6]) it was 43.8 µM; in data set [2] (setting [7]), 4.1 µM; in data set [2] (setting [8]), 59.1 µM. Also, the figures for the HCR in data set [1] and in data set [2] were 66 and 14, respectively.
Consider `COC1CN(CCCc2n[n+]([O-])c3cc4c(cc3[n+]2[O-])CCC4)C1` [Compound 83, 3-[3-(3-Methoxy-1-azetidinyl)propyl]-7,8-dihydro-6H-indeno[5,6-e][1,2,4]triazine 1,4-Dioxide], for which the IC50 in data set [1] (setting [5]) worked out at 0.58 ± 0.19 µM; in data set [1] (setting [6]), 300 ± 162 µM; in data set [2] (setting [7]), 1.3 ± 0.2 µM; in data set [2] (setting [8]), 262 ± 83 µM. Also, the figures for the HCR in data set [1] and in data set [2] were 640 ± 411 and 249 ± 129, respectively.

For orientation: IC50 means the concentration that inhibits the measured activity by half. In general, melting point refers to the temperature of the solid-liquid transition.
